Experimental data from ChEMBL document CHEMBL5370591, “A Potent and Narrow-Spectrum Antibacterial against Clostridioides difficile Infection” (J Med Chem, 2023).
≈ marks a conversion by molar mass, not a printed value. Calls of active or inactive are those of the source. The rule behind the calls is not given here.

Columns and labels:
Staphylococcus aureus [1] = experiment: Antibacterial activity against vancomycin-resistant Staphylococcus aureus clinical isolate 1 assessed as inhibition of bacterial growth by broth microdilution method; type: functional
Clostridioides difficile [2] = experiment: Antibacterial activity against Clostridium difficile BAA-1803 assessed as inhibition of bacterial growth by broth microdilution method; type: functional
Bifidobacterium longum = experiment: Antibacterial activity against Bifidobacterium longum HM-846 assessed as inhibition of bacterial growth by broth microdilution method; type: functional
Clostridioides difficile [3] = experiment: Antibacterial activity against Clostridium difficile NR49318 assessed as inhibition of bacterial growth by broth microdilution method; type: functional
Clostridioides difficile [4] = experiment: Antibacterial activity against Clostridium difficile ATCC 43255 assessed as damage in cell wall at 8 time MIC incubated for 24 hrs by scanning electron microscopy based analysis; type: functional, organism-based
Clostridioides difficile [5] = experiment: Antibacterial activity against Clostridium difficile ATCC 43255 assessed as as time duration of post-antibiotic effect for suppression of bacterial growth at 4 times MIC incubated for 1 hr in broth solution; type: functional
Clostridioides difficile [6] = experiment: Antibacterial activity against Clostridium difficile NR49294 assessed as inhibition of bacterial growth by broth microdilution method; type: functional
Bacteroides fragilis = experiment: Antibacterial activity against Bacteroides fragilis HM-709 assessed as inhibition of bacterial growth by broth microdilution method; type: functional
Clostridioides difficile [7] = experiment: Antibacterial activity against Clostridium difficile NR49292 assessed as inhibition of bacterial growth by broth microdilution method; type: functional
Fusobacterium nucleatum = experiment: Antibacterial activity against Fusobacterium nucleatum HM-992 assessed as inhibition of bacterial growth by broth microdilution method; type: functional
[8] = tested on: Limosilactobacillus reuteri; experiment: Antibacterial activity against Lactobacillus reuteri HM-102 assessed as inhibition of bacterial growth by broth microdilution method; type: functional
Enterococcus faecalis [9] = experiment: Antibacterial activity against vancomycin susceptible Enterococcus faecalis 201 assessed as inhibition of bacterial growth by broth microdilution method; type: functional
Clostridioides difficile [10] = experiment: Antibacterial activity against Clostridium difficile NR49310 assessed as inhibition of bacterial growth by broth microdilution method; type: functional
Acinetobacter baumannii = experiment: Antibacterial activity against Acinetobacter baumannii ATCC17961 assessed as inhibition of bacterial growth by broth microdilution method; type: functional
Staphylococcus aureus [11] = experiment: Antibacterial activity against Staphylococcus aureus NRS100 assessed as inhibition of bacterial growth by broth microdilution method; type: functional
Clostridioides difficile [12] = experiment: Antibacterial activity against Clostridium difficile NR49305 assessed as inhibition of bacterial growth by broth microdilution method; type: functional
Clostridioides difficile [13] = experiment: Antibacterial activity against Clostridium difficile BAA-1870 assessed as inhibition of bacterial growth by broth microdilution method; type: functional
Streptococcus pyogenes = experiment: Antibacterial activity against Streptococcus pyogenes ATCC 49399 assessed as inhibition of bacterial growth by broth microdilution method; type: functional
Klebsiella aerogenes = experiment: Antibacterial activity against Klebsiella aerogenes ATCC35029 assessed as inhibition of bacterial growth by broth microdilution method; type: functional
Streptococcus oralis = experiment: Antibacterial activity against Streptococcus oralis ATCC 9811 assessed as inhibition of bacterial growth by broth microdilution method; type: functional
Eubacterium sp. = experiment: Antibacterial activity against Eubacterium sp. HM-178 assessed as inhibition of bacterial growth by broth microdilution method; type: functional
Staphylococcus aureus [14] = experiment: Antibacterial activity against Staphylococcus aureus ATCC 27660 assessed as inhibition of bacterial growth by broth microdilution method; type: functional
Staphylococcus aureus [15] = experiment: Antibacterial activity against Staphylococcus aureus NRS120 assessed as inhibition of bacterial growth by broth microdilution method; type: functional
Bacillus cereus = experiment: Antibacterial activity against Bacillus cereus ATCC 13061 assessed as inhibition of bacterial growth by broth microdilution method; type: functional
Staphylococcus aureus [16] = experiment: Antibacterial activity against Staphylococcus aureus NRS119 assessed as inhibition of bacterial growth by broth microdilution method; type: functional
Veillonella = experiment: Antibacterial activity against Veillonella HM-49 assessed as inhibition of bacterial growth by broth microdilution method; type: functional
Klebsiella pneumoniae = experiment: Antibacterial activity against Klebsiella pneumoniae ATCC700603 assessed as inhibition of bacterial growth by broth microdilution method; type: functional
Enterococcus faecalis [17] = experiment: Antibacterial activity against Enterococcus faecalis ATCC 29212 assessed as inhibition of bacterial growth by broth microdilution method; type: functional
[18] = tested on: Staphylococcus haemolyticus; experiment: Antibacterial activity against Staphylococcus haemolyticus ATCC 29970 assessed as inhibition of bacterial growth by broth microdilution method; type: functional
THP-1 = experiment: Cytotoxicity against human THP-1 cells assessed as increase in LDH release incubate for 24 hrs by trypan-blue staining based analysis; type: functional, cell-based; settings: THP-1, 24 h
Enterococcus faecalis [19] = experiment: Antibacterial activity against vancomycin resistant Enterococcus faecalis 99 assessed as inhibition of bacterial growth by broth microdilution method; type: functional
Enterococcus faecium [20] = experiment: Antibacterial activity against Enterococcus faecium NCTC 7171 assessed as inhibition of bacterial growth by broth microdilution method; type: functional
Escherichia coli = experiment: Antibacterial activity against Escherichia coli ATCC25922 assessed as inhibition of bacterial growth by broth microdilution method; type: functional
Staphylococcus aureus [21] = experiment: Antibacterial activity against vancomycin-resistant Staphylococcus aureus clinical isolate 2 assessed as inhibition of bacterial growth by broth microdilution method; type: functional
Corynebacterium sp. = experiment: Antibacterial activity against Corynebacterium sp. HM-784 assessed as inhibition of bacterial growth by broth microdilution method; type: functional
Enterococcus faecium [22] = experiment: Antibacterial activity against vancomycin resistant Enterococcus faecium 106 assessed as inhibition of bacterial growth by broth microdilution method; type: functional
Clostridioides difficile [23] = experiment: Antibacterial activity against Clostridium difficile 26675 assessed as inhibition of bacterial growth by broth microdilution method; type: functional
Staphylococcus aureus [24] = experiment: Antibacterial activity against Staphylococcus aureus ATCC 29213 assessed as inhibition of bacterial growth by broth microdilution method; type: functional
[25] = Selectivity ratio of IC50 for human THP-1 cells to MIC for Clostridium difficile ATCC 43255; type: toxicity
Pseudomonas aeruginosa = experiment: Antibacterial activity against Pseudomonas aeruginosa ATCC27853 assessed as inhibition of bacterial growth by broth microdilution method; type: functional
Bacillus licheniformis = experiment: Antibacterial activity against Bacillus licheniformis ATCC 12759 assessed as inhibition of bacterial growth by broth microdilution method; type: functional
Lactobacillus gasseri = experiment: Antibacterial activity against Lactobacillus gasseri HM-644 assessed as inhibition of bacterial growth by broth microdilution method; type: functional
Clostridioides difficile [26] = experiment: Antibacterial activity against Clostridium difficile ATCC 43255 assessed as inhibition of bacterial growth by broth microdilution method; type: functional
Enterococcus faecium [27] = experiment: Antibacterial activity against vancomycin susceptible Enterococcus faecium119-39A assessed as inhibition of bacterial growth by broth microdilution method; type: functional; settings: 119-39A
[28] = tested on: Staphylococcus epidermidis; experiment: Antibacterial activity against Staphylococcus epidermidis ATCC 35547 assessed as inhibition of bacterial growth by broth microdilution method; type: functional
Clostridioides difficile [29] = experiment: Antibacterial activity against Clostridium difficile NR49302 assessed as inhibition of bacterial growth by broth microdilution method; type: functional
Clostridioides difficile [30] = experiment: Antibacterial activity against Clostridium difficile 24531 assessed as inhibition of bacterial growth by broth microdilution method; type: functional

Molecule `CN[C@H](CC(C)C)C(=O)N[C@H]1C(=O)N[C@@H](CC(N)=O)C(=O)N[C@H]2C(=O)N[C@H]3C(=O)N[C@H](C(=O)N[C@H](C(=O)O)c4cc(O)cc(O)c4-c4cc3ccc4O)[C@H](O)c3ccc(c(Cl)c3)Oc3cc2cc(c3O[C@@H]2O[C@H](CO)[C@@H](O)[C@H](O)[C@H]2O[C@H]2C[C@](C)(N)[C@H](O)[C@H](C)O2)Oc2ccc(cc2Cl)[C@H]1O` [VANCOMYCIN] has an MIC (Staphylococcus aureus [1]) of 64 µg/mL (≈ 44.2 µM), an MIC (Clostridioides difficile [2]) of 2 µg/mL (≈ 1.38 µM) and an MIC (Bifidobacterium longum) of 0.25 µg/mL (≈ 0.173 µM). For the same molecule, the MIC (Clostridioides difficile [3]) was 0.25 µg/mL (≈ 0.173 µM), the Activity (Clostridioides difficile [4]) was “Active” and the Time (Clostridioides difficile [5]) was 3 h. It also gave an MIC (Clostridioides difficile [6]) of 0.25 µg/mL (≈ 0.173 µM), an MIC (Bacteroides fragilis) of 16 µg/mL (≈ 11 µM) and an MIC (Clostridioides difficile [7]) of 0.25 µg/mL (≈ 0.173 µM). For the same molecule, the MIC (Fusobacterium nucleatum) was 0.25 µg/mL (≈ 0.173 µM).

For `FC(F)(F)c1ccc(Oc2ccc(-c3noc(-c4ccc5[nH]ccc5c4)n3)cc2)cc1`, the MIC [8] was greater than 128 µg/mL, the MIC (Enterococcus faecalis [9]) was 4 µg/mL (≈ 9.49 µM) and the MIC (Clostridioides difficile [10]) was 2 µg/mL (≈ 4.75 µM). It also gave an MIC (Acinetobacter baumannii) greater than 128 µg/mL, an MIC (Staphylococcus aureus [11]) of 2 µg/mL (≈ 4.75 µM) and an MIC (Clostridioides difficile [12]) of 4 µg/mL (≈ 9.49 µM). The MIC (Staphylococcus aureus [1]) was 2 µg/mL (≈ 4.75 µM), the MIC (Clostridioides difficile [2]) was 2 µg/mL (≈ 4.75 µM) and the MIC (Clostridioides difficile [13]) was 4 µg/mL (≈ 9.49 µM). For the same molecule, the MIC (Streptococcus pyogenes) was 64 µg/mL (≈ 152 µM), the MIC (Klebsiella aerogenes) was greater than 128 µg/mL and the MIC (Streptococcus oralis) was 128 µg/mL (≈ 304 µM). For the same molecule, the MIC (Bifidobacterium longum) was 0.25 µg/mL (≈ 0.593 µM), the MIC (Clostridioides difficile [3]) was 2 µg/mL (≈ 4.75 µM) and the MIC (Eubacterium sp.) was 2 µg/mL (≈ 4.75 µM). For the same molecule, the MIC (Staphylococcus aureus [14]) was 4 µg/mL (≈ 9.49 µM), the MIC (Staphylococcus aureus [15]) was 2 µg/mL (≈ 4.75 µM) and the MIC (Bacillus cereus) was 16 µg/mL (≈ 38 µM). For the same molecule, the MIC (Staphylococcus aureus [16]) was 2 µg/mL (≈ 4.75 µM), the MIC (Veillonella) was greater than 128 µg/mL and the MIC (Klebsiella pneumoniae) was greater than 128 µg/mL. The MIC (Enterococcus faecalis [17]) was 8 µg/mL (≈ 19 µM), the MIC [18] was 8 µg/mL (≈ 19 µM) and the IC50 (THP-1) was 69 µg/mL (≈ 164 µM). It also gave an MIC (Enterococcus faecalis [19]) of 4 µg/mL (≈ 9.49 µM), an MIC (Enterococcus faecium [20]) of 2 µg/mL (≈ 4.75 µM) and an MIC (Escherichia coli) greater than 128 µg/mL. The MIC (Staphylococcus aureus [21]) was 2 µg/mL (≈ 4.75 µM), the MIC (Corynebacterium sp.) was 2 µg/mL (≈ 4.75 µM) and the MIC (Clostridioides difficile [6]) was 1 µg/mL (≈ 2.37 µM). The MIC (Bacteroides fragilis) was 4 µg/mL (≈ 9.49 µM), the MIC (Enterococcus faecium [22]) was 2 µg/mL (≈ 4.75 µM) and the MIC (Clostridioides difficile [23]) was 4 µg/mL (≈ 9.49 µM). The MIC (Staphylococcus aureus [24]) was 4 µg/mL (≈ 9.49 µM), the selectivity ratio [25] was 17 and the MIC (Clostridioides difficile [7]) was 2 µg/mL (≈ 4.75 µM). The MIC (Pseudomonas aeruginosa) was greater than 128 µg/mL, the MIC (Bacillus licheniformis) was 8 µg/mL (≈ 19 µM) and the MIC (Lactobacillus gasseri) was greater than 128 µg/mL. It also gave an MIC (Fusobacterium nucleatum) of 1 µg/mL (≈ 2.37 µM), an MIC (Clostridioides difficile [26]) of 2 µg/mL (≈ 4.75 µM) and an MIC (Enterococcus faecium [27]) of 1 µg/mL (≈ 2.37 µM). It also gave an MIC [28] of 2 µg/mL (≈ 4.75 µM), an MIC (Clostridioides difficile [29]) of 2 µg/mL (≈ 4.75 µM) and an MIC (Clostridioides difficile [30]) of 4 µg/mL (≈ 9.49 µM).
